Experimental data as given in the supplement of paper PMC4121296.

Experiments:
Details in all cases: exposure: 5-72 hpf
[1] = tested on: Danio rerio embryo (fli1:egfp); test: intersegmental vessel area normalized to body length at 72 hpf (ISV area / body length (normalized units)); higher = more vessel area
Description: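 fli1:egfp zebrafish embryos exposed 5-72 hpf to chemical (0.05-50 µM, 0.1% DMSO); intersegmental vessel (ISV) eGFP area quantified by MetaXpress journal at 72 hpf and normalized to body length.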

[2] = tested on: Danio rerio embryo (fli1:egfp); test: body length at 72 hpf (µm); higher = longer body (less growth inhibition)
Description: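 Transgenic fli1:egfp zebrafish embryos (one per well, 384-well plate) exposed statically from 5 to 72 hpf at 28 °C to chemical (0.05-50 µM, 0.1% DMSO); at 72 hpf anesthetized and imaged on ImageXpress; body length of live, hatched, correctly oriented embryos measured by automated MetaXpress journal. Dead/unhatched/misoriented embryos have no value.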

[3] = tested on: Danio rerio embryo (fli1:egfp); test: heart rate at 72 hpf (beats per minute); higher = faster heart rate
Description: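 fli1:egfp zebrafish embryos exposed 5-72 hpf to chemical (0.05-50 µM, 0.1% DMSO) in 384-well plates; heart rate at 72 hpf quantified from stream acquisitions by semi-automated MetaXpress journal (peak counting); only embryos in concentrations passing survival/body-length criteria analyzed.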

[4] = tested on: Danio rerio embryo (fli1:egfp); test: pericardial area at 72 hpf (image area units (not stated)); higher = larger pericardial area (edema)
Description: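 fli1:egfp zebrafish embryos exposed 5-72 hpf to chemical (0.05-50 µM, 0.1% DMSO); pericardial area at 72 hpf measured by semi-automated MetaXpress journal (increase indicates edema).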

[5] = tested on: Danio rerio embryo (fli1:egfp); test: arterial (dorsal aorta) circulation score at 72 hpf (normalized DA-Max (arbitrary units)); higher = more circulation
Description: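 fli1:egfp zebrafish embryos exposed 5-72 hpf to chemical (0.05-50 µM, 0.1% DMSO); arterial circulation at 72 hpf quantified from stream acquisitions of the dorsal aorta by FFT-based analysis (DA-Max, normalized dorsal aorta signal); only concentrations passing survival/body-length criteria analyzed.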

C=C(C)[C@H]1Cc2c(ccc3c2O[C@@H]2COc4cc(OC)c(OC)cc4[C@@H]2C3=O)O1 [Rotenone]
0.05 µM
Details	arterial	body length at 72 hpf	heart rate at 72 hpf	intersegmental vessel area normalized	pericardial area at 72 hpf
[1]	–	–	–	85.6	–
[2]	–	3020	–	–	–
[3]	–	–	141	–	–
[4]	–	–	–	–	18800
[5]	8.64	–	–	–	–

Cc1nn(-c2cc(NS(C)(=O)=O)c(Cl)cc2Cl)c(=O)n1C(F)F [Sulfentrazone]
Details	arterial, [5]	body length at 72 hpf, [2]	heart rate at 72 hpf, [3]	intersegmental vessel area normalized, [1]	pericardial area at 72 hpf, [4]
0.05 µM	11.4	3000	156	77.2	17900
0.098 µM	11.7	2990	158	76.8	16100
0.195 µM	12.6	2990	158	71.2	16300
0.39 µM	9.83	2970	157	72.4	15600
0.78 µM	11.3	2920	161	78.9	16100
1.56 µM	8.91	2930	163	72.4	18600
3.125 µM	8.71	2970	162	71.4	17200
6.25 µM	8.86	3030	167	69.7	20400
12.5 µM	7.1	3020	170	74.8	18700
25 µM	11.1	2970	169	71.2	21700
50 µM	5.34	2950	173	71.2	21200

CCc1nn(C)c(C(=O)NCc2ccc(C(C)(C)C)cc2)c1Cl [Tebufenpyrad]
Details	arterial, [5]	body length at 72 hpf, [2]	heart rate at 72 hpf, [3]	intersegmental vessel area normalized, [1]	pericardial area at 72 hpf, [4]
0.05 µM	9.08	2980	155	75.7	13400
0.098 µM	10.5	2960	166	75.9	13600
0.195 µM	10.6	2960	160	78.8	13000
0.39 µM	11.6	2990	166	76.5	14800
0.78 µM	14.2	2950	174	77	16300

CN(C)C(=S)SSC(=S)N(C)C [Thiram]
Details	arterial, [5]	body length at 72 hpf, [2]	heart rate at 72 hpf, [3]	intersegmental vessel area normalized, [1]	pericardial area at 72 hpf, [4]
95 pM	9.22	3070	180	95.8	11600
0.00019 µM	11.1	3010	187	101	11600
0.00038 µM	9.48	3060	179	97.6	12500
0.00076 µM	10.3	3020	192	98.6	11500
0.0015 µM	11	3050	191	95.6	11200
0.003 µM	9.4	3070	196	99.4	12900
0.0061 µM	8.74	3050	196	110	14600
0.0122 µM	9.58	3070	189	99.1	12000
0.0244 µM	11.3	3080	179	97.9	12400

CCCCSP(=O)(SCCCC)SCCCC [Tribufos]
Details	arterial, [5]	body length at 72 hpf, [2]	heart rate at 72 hpf, [3]	intersegmental vessel area normalized, [1]	pericardial area at 72 hpf, [4]
0.05 µM	11.1	2900	166	79.6	13400
0.098 µM	14.1	2950	161	84.8	13600
0.195 µM	14.9	2990	182	92.3	14700
0.39 µM	15.4	2940	169	83.8	13700
0.78 µM	14.8	2940	167	86	14600
1.56 µM	16.1	2910	164	87.5	14200
3.125 µM	14.5	2980	172	81.8	13300
6.25 µM	15	2970	176	94.4	15200
12.5 µM	13.9	2870	166	81.3	13400

CO/N=C(/C(=O)OC)c1ccccc1CO/N=C(\C)c1cccc(C(F)(F)F)c1 [Trifloxystrobin]
Details	arterial, [5]	body length at 72 hpf, [2]	heart rate at 72 hpf, [3]	intersegmental vessel area normalized, [1]	pericardial area at 72 hpf, [4]
0.05 µM	12.1	2950	172	71	12800
0.098 µM	11.6	3060	171	73.5	10600
0.195 µM	15.7	3030	167	70.2	12300
0.39 µM	15	2970	173	67.6	12200
0.78 µM	14.9	3000	166	68.9	13900
